Consider 30 molecules from patent publication US9447100B2, “Substituted pyrazolo[1,5-A] pyrimidines as calcium receptor modulating agents” (Takeda Pharmaceutical Company Limited, priority 2002, dated 2016).

Structures can show the parent of a compound that is named as a salt.

As for `CCC(CC)(NC(=O)c1c(C)nn2c1NC(c1ccccc1C)CC2(C)C)c1ccc(C)cc1` (stereo not drawn) (as salt: HCl) [Example 782, N-(1-ethyl-1-(4-methylphenyl)propyl)-2,7,7-trimethyl-5-(2-methylphenyl)-4,5,6,7-tetrahydropyrazolo[1,5-a]pyrimidine-3-carboxamide], the melting point – broadly, the temperature, or range, at which the solid turns liquid – was 187 to 188 °C. The figure for `O=C(O)c1cnn2c1NC(c1ccc(Cl)cc1)CC2C(F)(F)F` (stereo not drawn) [Example 26, 5-(4-chlorophenyl)-7-(trifluoromethyl)-4,5,6,7-tetrahydropyrazolo[1,5-a]pyrimidine-3-carboxylic acid] is 186 to 187 °C. Under `CCC(CC)(NC(=O)c1c(C)nn2c1N[C@@H](c1ccccc1)CC2(C)C)c1ccc(Cl)c(C)c1` (as salt: HCl) [Example 1068, (5R)-N-(1-(4-chloro-3-methylphenyl)-1-ethylpropyl)-2,7,7-trimethyl-5-phenyl-4,5,6,7-tetrahydropyrazolo[1,5-a]pyrimidine-3-carboxamide] stands 150 to 151 °C; under `CCC(CC)(NC(=O)c1cnn2c1NC(c1ccccc1)CC2(C)C)c1ccc(C#N)cc1` (stereo not drawn) [Example 574, N-(1-(4-cyanophenyl)-1-ethylpropyl)-7,7-dimethyl-5-phenyl-4,5,6,7-tetrahydropyrazolo[1,5-a]pyrimidine-3-carboxamide], 237 to 238 °C. The figure for `CCC(CC)(NC(=O)c1cnn2c1NC(c1ccccc1)CC2(C)C)c1ccc(C)c(C)c1` (stereo not drawn) (as salt: HCl) [Example 769, N-(1-(3,4-dimethylphenyl)-1-ethylpropyl)-7,7-dimethyl-5-phenyl-4,5,6,7-tetrahydropyrazolo[1,5-a]pyrimidine-3-carboxamide] is 137 to 138 °C; for `CC1(C)CC(c2ccccc2)Nc2c(C(=O)NC(c3ccc(Cl)cc3)c3ccc(Cl)cc3)cnn21` (stereo not drawn) [Example 405, N-(bis(4-chlorophenyl)methyl)-7,7-dimethyl-5-phenyl-4,5,6,7-tetrahydropyrazolo[1,5-a]pyrimidine-3-carboxamide] it is 180 to 181 °C. In the case of `CCC(CC)(NC(=O)c1c(C)nn2c1N[C@H](c1ccccc1)CC2(C)C)c1ccc(Cl)cc1` [Example 1041, (5S)-N-(1-(4-chlorophenyl)-1-ethylpropyl)-2,7,7-trimethyl-5-phenyl-4,5,6,7-tetrahydropyrazolo[1,5-a]pyrimidine-3-carboxamide], the melting point fell in the range of 131 to 132 °C.

The molecule `COc1ccc(C2CC(C(F)(F)F)n3ncc(C(=O)O)c3N2)cc1` (stereo not drawn) [Example 25, 5-(4-methoxyphenyl)-7-(trifluoromethyl)-4,5,6,7-tetrahydropyrazolo[1,5-a]pyrimidine-3-carboxylic acid] yielded a melting point of 154 to 155 °C. With `CCC(CC)(NC(=O)c1c(C)nn2c1NC(c1ccccc1)CC2(C)C)c1ccc(SC)cc1` (stereo not drawn) [Example 833, N-(1-ethyl-1-(4-(methylthio)phenyl)propyl)-2,7,7-trimethyl-5-phenyl-4,5,6,7-tetrahydropyrazolo[1,5-a]pyrimidine-3-carboxamide], the melting point lay in the range of 149 to 150 °C. Molecule `O=C(On1nnc2ccccc21)c1cnn2c1N[C@H](c1ccccc1)C[C@@H]2C(F)(F)F` (stereo in doubt) [Example 372, 1-(((5-phenyl-7-(trifluoromethyl)-4,5,6,7-tetrahydropyrazolo[1,5-a]pyrimidin-3-yl)carbonyl)oxy)-1H-1,2,3-benzotriazole] yielded a melting point of 216 to 217 °C. For `CCC(CC)(NC(=O)c1c(C)nn2c1NC(c1cccc(F)c1)CC2(C)C)c1ccc(C)cc1` (stereo not drawn) (as salt: HCl) [Example 972, N-(1-ethyl-1-(4-methylphenyl)propyl)-5-(3-fluorophenyl)-2,7,7-trimethyl-4,5,6,7-tetrahydropyrazolo[1,5-a]pyrimidine-3-carboxamide], the melting point lay in the range of 152 to 155 °C. In turn, `CCC(CC)(Cc1ccc(OC)cc1)NC(=O)c1cnn2c1NC(c1ccccc1)CC2(C)C` (stereo not drawn) [Example 704, N-(1-ethyl-1-(4-methoxybenzyl)propyl)-7,7-dimethyl-5-phenyl-4,5,6,7-tetrahydropyrazolo[1,5-a]pyrimidine-3-carboxamide] came in with a melting point of 185 to 186 °C.

The molecule `CCC(CC)(NC(=O)c1c(C)nn2c1N[C@@H](c1ccccc1)CC2(C)C)c1ccc(O)cc1` [Example 1064, (5R)-N-(1-ethyl-1-(4-hydroxyphenyl)propyl)-2,7,7-trimethyl-5-phenyl-4,5,6,7-tetrahydropyrazolo[1,5-a]pyrimidine-3-carboxamide] had a melting point of 160 to 161 °C. As for `COC(=O)C1(NC(=O)c2cnn3c2NC(c2ccccc2)CC3(C)C)CCCCC1` (stereo not drawn) [Example 624, methyl 1-(((7,7-dimethyl-5-phenyl-4,5,6,7-tetrahydropyrazolo[1,5-a]pyrimidin-3-yl)carbonyl)amino)cyclo-hexanecarboxylate], the melting point is 184 to 185 °C. Regarding `CC1CC(c2ccccc2)Nc2c(C(=O)O)cnn21` (stereo not drawn) [Example 27, 7-methyl-5-phenyl-4,5,6,7-tetrahydropyrazolo[1,5-a]pyrimidine-3-carboxylic acid], the melting point is 165 to 167 °C. Molecule `CCCC(=O)Oc1ccc(C(CC)(CC)NC(=O)c2cnn3c2NC(c2ccccc2)CC3(C)C)cc1` (stereo not drawn) [Example 760, 4-(1-(((7,7-dimethyl-5-phenyl-4,5,6,7-tetrahydropyrazolo[1,5-a]pyrimidin-3-yl)carbonyl)amino)-1-ethylpropyl)phenyl butyrate] displayed a melting point of 148 to 149 °C.

Turning to `CC(C)(CC1Cc2ccccc2C1)NC(=O)c1cnn2c1NC(c1ccccc1)CC2C(F)(F)F` (stereo not drawn) [Example 292, N-(2-(2,3-dihydro-1H-inden-2-yl)-1,1-dimethylethyl)-5-phenyl-7-(trifluoromethyl)-4,5,6,7-tetrahydropyrazolo[1,5-a]pyrimidine-3-carboxamide], the melting point lay within 221 to 222 °C. Under `COc1ccccc1C1CC(C)(C)n2ncc(C(=O)NC34CC5CC(CC(C5)C3)C4)c2N1` (stereo not drawn) [Example 581, N-1-adamantyl-5-(2-methoxyphenyl)-7,7-dimethyl-4,5,6,7-tetrahydropyrazolo[1,5-a]pyrimidine-3-carboxamide] stands 280 to 282 °C; under `CCC(CC)(NC(=O)c1cnn2c1NC(c1ccccc1)CC2(C)C)c1cccc(Br)c1` (stereo not drawn) [Example 613, N-(1-(3-bromophenyl)-1-ethylpropyl)-7,7-dimethyl-5-phenyl-4,5,6,7-tetrahydropyrazolo[1,5-a]pyrimidine-3-carboxamide], 195 to 196 °C; under `CCC(CC)(NC(=O)c1cnn2c1NC(c1ccccc1)CC2(C)C)c1ccc(Cl)cc1Cl` (stereo not drawn) [Example 680, N-(1-(2,4-dichlorophenyl)-1-ethylpropyl)-7,7-dimethyl-5-phenyl-4,5,6,7-tetrahydropyrazolo[1,5-a]pyrimidine-3-carboxamide], 220 to 222 °C. The figure for `CCC(CC)(NC(=O)c1cnn2c1NC(c1ccccc1F)CC2(C)C)c1ccc(C(F)(F)F)cc1` (stereo not drawn) [Example 675, N-(1-ethyl-1-(4-(trifluoromethyl)phenyl)propyl)-5-(2-fluorophenyl)-7,7-dimethyl-4,5,6,7-tetrahydropyrazolo[1,5-a]pyrimidine-3-carboxamide] is 200.9 to 201 °C; for `Cc1nn2c(c1C(=O)NC13CC4CC(CC(C4)C1)C3)NC(c1ccccc1)CC2C(F)(F)F` (stereo not drawn) [Example 42] it is 162 to 163 °C.

As for `COc1ccc(C2CC(C)(C)n3ncc(C(=O)O)c3N2)cc1` (stereo not drawn) [Example 942, 5-(4-methoxyphenyl)-7,7-dimethyl-4,5,6,7-tetrahydropyrazolo[1,5-a]pyrimidine-3-carboxylic acid], the melting point was 196 to 197 °C. The figure for `CCC(CC)(NC(=O)c1cnn2c1NC(c1ccccc1)CC2(C)C)c1cccc(F)c1` (stereo not drawn) [Example 615, N-(1-ethyl-1-(3-fluorophenyl)propyl)-7,7-dimethyl-5-phenyl-4,5,6,7-tetrahydropyrazolo[1,5-a]pyrimidine-3-carboxamide] is 180 to 181 °C; for `CCC1(CC)C[C@@H](OC)CN1C(=O)c1c(C)nn2c1N[C@@H](c1ccccc1)CC2(C)C` [Example 1099, (5R)-3-(((4R)-2,2-diethyl-4-methoxy-1-pyrralidinyl)carbanyl)-2,7,7-trimethyl-5-phenyl-4,5,6,7-tetrahydropyrazolo[1,5-a]pyrimidine] it is 132 to 134 °C. The figure for `CCC(CC)(NC(=O)c1c(C)nn2c1NC(c1ccccc1)CC2(C)C)c1ccc(Cl)cc1` (stereo not drawn) [Example 696, N-(1-(4-chlorophenyl)-1-ethylpropyl)-2,7,7-trimethyl-5-phenyl-4,5,6,7-tetrahydropyrazolo[1,5-a]pyrimidine-3-carboxamide] is 146 to 148 °C; for `CCC(CC)(NC(=O)c1cnn2c1NC(c1ccccc1)CC2(C)C)c1ccc(I)cc1` (stereo not drawn) [Example 667, N-(1-ethyl-1-(4-iodophenyl)propyl)-7,7-dimethyl-5-phenyl-4,5,6,7-tetrahydropyrazolo[1,5-a]pyrimidine-3-carboxamide] it is 182 to 183 °C; for `CCC(CC)(NC(=O)c1c(C)nn2c1NC(c1ccccc1)CC2(C)C)c1ccc(C(C)=O)cc1` (stereo not drawn) [Example 977, N-(1-(4-acetylphenyl)-1-ethylpropyl)-2,7,7-trimethyl-5-phenyl-4,5,6,7-tetrahydropyrazolo[1,5-a]pyrimidine-3-carboxamide] it is 200 to 202 °C.

As for `CCCCOC(=O)CCc1ccc(C(CC)(CC)NC(=O)c2cnn3c2NC(c2ccccc2)CC3(C)C)cc1` (stereo not drawn) (as salt: HCl) [Example 815, butyl 3-(4-(1-(((7,7-dimethyl-5-phenyl-4,5,6,7-tetrahydropyrazolo[1,5-a]pyrimidin-3-yl)carbonyl)amino)-1-ethyl-propyl)phenyl)propanoate], the melting point lay in the range of 143 to 144 °C. The figure for `COc1ccc(C2CC(C)(C)n3nc(C)c(C(=O)O)c3N2)cc1` (stereo not drawn) [Example 950, 5-(4-methoxyphenyl)-2,7,7-trimethyl-4,5,6,7-tetrahydropyrazolo[1,5-a]pyrimidine-3-carboxylic acid] is 178 to 179 °C.
